Structures are written as SMILES. Structures can show the parent of a compound that is named as a salt.

The assay concerns PDE4. As to the kind of experiment: Inhibition of the PDE4 activity (Bauer and Schwabe method, adapted to microtiter plates). Conditions: inhibitory concentration as -log IC50 (mol/l). The assay is classed as biochemical.
For `COc1ccc(-c2nc3ncccc3o2)c2c1OC1(CCCC1)C2` [Compound 1, 2-(2,3-Dihydro-7-methoxybenzofuran-2-spiro-1'-cyclopentan-4-yl)oxazolo[4,5-b]pyridine], the “-log IC50” value turned out to be 7.93.
On to `COc1ccc(-c2nc3cccnc3o2)c2c1OC1(CCCC1)C2` [Compound 2, 2-(2,3-Dihydro-7-methoxybenzofuran-2-spiro-1'-cyclopentan-4-yl)oxazolo[5,4-b]pyridine], for which the “-log IC50” value worked out at 6.61.
For `COc1ccc(-c2nc3cnccc3o2)c2c1OC1(CCCC1)C2` [Compound 3, 2-(2,3-Dihydro-7-methoxybenzofuran-2-spiro-1'-cyclopentan-4-yl)oxazolo[4,5-c]pyridine] the value was 8.76; for `COc1ccc(-c2nc3cnccc3[nH]2)c2c1OC1(CCCC1)C2` [Compound 4, 2-(2,3-Dihydro-7-methoxybenzofuran-2-spiro-1'-cyclopentan-4-yl)imidazolo[4,5-c]pyridin], 8.08; for `COc1ccc(-c2nc3cnccc3[nH]2)c2c1OC1(CCCCC1)C2` [Compound 5, 2-(2,3-Dihydro-7-methoxybenzofuran-2-spiro-1'-cyclohexan-4-yl)imidazolo[4,5-c]pyridine], 7.52.
For `COc1ccc(-c2nc3ncccc3[nH]2)c2c1OC1(CCCCC1)C2` [Compound 6, 2-(2,3-Dihydro-7-methoxybenzofuran-2-spiro-1'-cyclohexan-4-yl)imidazo[4,5-b]pyridine dihydrochloride hemihydrate] the value was 6.90.
For `COc1ccc(-c2nc3c(Cl)nccc3[nH]2)c2c1OC1(CCCC1)C2` [Compound 7, 4-Chloro-2-(2,3-dihydro-7-methoxybenzofuran-2-spiro-1'-cyclopentan-4-yl)imidazo[4,5-c]pyridine] the value was 7.98.
